Assay results: the kinase profiling compilation of Christmann-Franck et al. (2016)

Columns and labels:
Test in all cases: radiometric filter-binding kinase assay, Kinase HotSpot
Details in all cases: compound 0.5 µM; ATP 10 µM
[1] = molecular target: CAMK2D (human) (UniProt Q13557)
[2] = molecular target: CSK (human) (UniProt P41240)
[3] = molecular target: PHKG1 (human) (UniProt Q16816)
[4] = molecular target: MAP3K9 (human) (UniProt P80192)
[5] = molecular target: RPS6KB1 (human) (UniProt P23443)
[6] = molecular target: CAMK2B (human) (UniProt Q13554)
[7] = molecular target: DAPK1 (human) (UniProt P53355)
[8] = molecular target: AURKC (human) (UniProt Q9UQB9)
[9] = molecular target: MAP4K4 (human) (UniProt O95819)
[10] = molecular target: CDK6 CCND1 (human) (UniProt Q00534+P24385)
[11] = molecular target: BRSK2 (human) (UniProt Q8IWQ3)
[12] = molecular target: MAPK1 (human) (UniProt P28482)
[13] = molecular target: MAPK3 (human) (UniProt P27361)
[14] = molecular target: RAF1 (human) (UniProt P04049)
[15] = molecular target: IRAK4 (human) (UniProt Q9NWZ3)
[16] = molecular target: PKN1 (human) (UniProt Q16512)
[17] = molecular target: TEK (human) (UniProt Q02763)
[18] = molecular target: MAP3K5 (human) (UniProt Q99683)
[19] = molecular target: FES (human) (UniProt P07332)
[20] = molecular target: CDK1 CCNB1 (human) (UniProt P06493+P14635)
[21] = molecular target: STK4 (human) (UniProt Q13043)
[22] = molecular target: DYRK2 (human) (UniProt Q92630)
[23] = molecular target: TGFBR1 (human) (UniProt P36897)
[24] = molecular target: CDK9 CCNK (human) (UniProt O75909+P50750)
[25] = molecular target: RPS6KA2 KD1 KD2 (human) (UniProt Q15349)
[26] = molecular target: PTK2 (human) (UniProt Q05397)
[27] = molecular target: LTK (human) (UniProt P29376)
[28] = molecular target: RIPK2 (human) (UniProt O43353)
[29] = molecular target: CAMK1 (human) (UniProt Q14012)
[30] = molecular target: STK33 (human) (UniProt Q9BYT3)
[31] = molecular target: CSNK2A2 (human) (UniProt P19784)
[32] = molecular target: PRKCZ (human) (UniProt Q05513)
[33] = molecular target: CAMK1G (human) (UniProt Q96NX5)
[34] = molecular target: AKT3 (human) (UniProt Q9Y243)
[35] = molecular target: MAP3K7 TAB1 (human) (UniProt O43318+Q15750)
[36] = molecular target: STK17A (human) (UniProt Q9UEE5)
[37] = molecular target: AXL (human) (UniProt P30530)
[38] = molecular target: EPHA4 (human) (UniProt P54764)
[39] = molecular target: TXK (human) (UniProt P42681)
[40] = molecular target: PIM2 (human) (UniProt Q9P1W9)
[41] = molecular target: CDK5 CDK5R1 p35 (human) (UniProt Q00535+Q15078)

CAMK2B (human), sequence (Q13554 whole entry, looked up): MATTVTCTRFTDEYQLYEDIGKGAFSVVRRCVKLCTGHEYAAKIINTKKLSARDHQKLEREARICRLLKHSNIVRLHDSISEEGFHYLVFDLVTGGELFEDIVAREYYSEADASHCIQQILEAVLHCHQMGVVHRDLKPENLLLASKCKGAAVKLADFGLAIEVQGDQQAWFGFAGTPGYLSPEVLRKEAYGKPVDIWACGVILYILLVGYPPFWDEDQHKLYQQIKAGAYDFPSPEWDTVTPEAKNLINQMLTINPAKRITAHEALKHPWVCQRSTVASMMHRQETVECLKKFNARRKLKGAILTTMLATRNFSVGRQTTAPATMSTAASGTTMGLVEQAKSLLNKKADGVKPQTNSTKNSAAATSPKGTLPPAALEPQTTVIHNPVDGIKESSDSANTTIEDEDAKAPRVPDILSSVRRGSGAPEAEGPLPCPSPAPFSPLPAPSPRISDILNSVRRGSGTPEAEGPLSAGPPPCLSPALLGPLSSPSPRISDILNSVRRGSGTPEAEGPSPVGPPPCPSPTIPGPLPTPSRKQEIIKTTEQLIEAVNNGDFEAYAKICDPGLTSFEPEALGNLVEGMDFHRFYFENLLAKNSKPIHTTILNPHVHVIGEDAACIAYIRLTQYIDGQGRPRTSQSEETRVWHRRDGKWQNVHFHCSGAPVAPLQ
BRSK2 (human), sequence (Q8IWQ3 whole entry, looked up): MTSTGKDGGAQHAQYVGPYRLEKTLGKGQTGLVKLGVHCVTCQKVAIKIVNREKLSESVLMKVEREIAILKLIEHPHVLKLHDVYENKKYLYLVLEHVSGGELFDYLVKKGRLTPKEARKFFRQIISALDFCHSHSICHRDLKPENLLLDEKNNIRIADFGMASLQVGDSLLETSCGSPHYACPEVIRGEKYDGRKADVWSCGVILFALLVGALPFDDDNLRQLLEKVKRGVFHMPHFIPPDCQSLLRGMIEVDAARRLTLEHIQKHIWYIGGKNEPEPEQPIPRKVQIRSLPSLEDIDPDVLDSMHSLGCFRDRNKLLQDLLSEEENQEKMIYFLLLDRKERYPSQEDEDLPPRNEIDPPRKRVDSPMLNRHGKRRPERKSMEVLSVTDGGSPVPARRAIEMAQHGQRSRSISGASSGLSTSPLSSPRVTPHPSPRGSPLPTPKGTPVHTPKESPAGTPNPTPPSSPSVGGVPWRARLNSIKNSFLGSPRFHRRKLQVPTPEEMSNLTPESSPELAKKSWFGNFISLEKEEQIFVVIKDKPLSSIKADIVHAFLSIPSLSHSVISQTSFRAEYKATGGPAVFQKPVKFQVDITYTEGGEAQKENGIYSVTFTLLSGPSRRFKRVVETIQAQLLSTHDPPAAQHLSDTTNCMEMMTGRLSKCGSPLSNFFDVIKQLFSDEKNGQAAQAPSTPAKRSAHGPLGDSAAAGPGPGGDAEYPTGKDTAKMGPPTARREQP
CDK6 CCND1 (human), sequence (P24385 whole entry, looked up): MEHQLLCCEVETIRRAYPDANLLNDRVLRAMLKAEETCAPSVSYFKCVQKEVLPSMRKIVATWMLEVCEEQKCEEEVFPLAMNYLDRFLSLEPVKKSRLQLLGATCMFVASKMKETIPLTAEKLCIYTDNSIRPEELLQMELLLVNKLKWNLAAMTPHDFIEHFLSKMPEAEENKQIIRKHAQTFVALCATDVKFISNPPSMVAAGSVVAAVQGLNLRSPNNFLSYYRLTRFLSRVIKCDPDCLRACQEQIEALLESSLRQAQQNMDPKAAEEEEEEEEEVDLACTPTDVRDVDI
CDK6 CCND1 (human), sequence (Q00534 whole entry, looked up): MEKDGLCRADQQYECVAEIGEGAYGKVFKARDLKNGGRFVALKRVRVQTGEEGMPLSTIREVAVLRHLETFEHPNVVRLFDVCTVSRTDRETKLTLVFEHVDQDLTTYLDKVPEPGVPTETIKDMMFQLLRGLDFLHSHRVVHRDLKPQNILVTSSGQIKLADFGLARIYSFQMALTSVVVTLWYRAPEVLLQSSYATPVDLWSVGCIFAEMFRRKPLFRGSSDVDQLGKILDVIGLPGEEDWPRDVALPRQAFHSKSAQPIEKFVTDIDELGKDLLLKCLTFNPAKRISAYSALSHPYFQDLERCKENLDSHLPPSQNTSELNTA
CAMK1G (human), sequence (Q96NX5 whole entry, looked up): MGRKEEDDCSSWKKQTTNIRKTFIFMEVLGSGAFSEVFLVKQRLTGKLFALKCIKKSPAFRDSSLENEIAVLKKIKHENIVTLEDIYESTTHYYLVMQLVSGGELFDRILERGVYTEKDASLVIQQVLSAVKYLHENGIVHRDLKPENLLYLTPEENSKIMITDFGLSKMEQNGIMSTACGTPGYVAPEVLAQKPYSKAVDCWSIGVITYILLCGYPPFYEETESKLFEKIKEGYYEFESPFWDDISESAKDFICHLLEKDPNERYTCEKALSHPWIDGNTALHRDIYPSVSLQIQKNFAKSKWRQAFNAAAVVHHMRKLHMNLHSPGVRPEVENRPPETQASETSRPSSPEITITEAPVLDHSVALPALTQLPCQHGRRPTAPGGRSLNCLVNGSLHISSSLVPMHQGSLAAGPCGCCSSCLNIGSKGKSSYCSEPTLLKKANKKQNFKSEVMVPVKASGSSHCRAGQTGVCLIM
RPS6KA2 KD1 KD2 (human), sequence (Q15349 whole entry, looked up): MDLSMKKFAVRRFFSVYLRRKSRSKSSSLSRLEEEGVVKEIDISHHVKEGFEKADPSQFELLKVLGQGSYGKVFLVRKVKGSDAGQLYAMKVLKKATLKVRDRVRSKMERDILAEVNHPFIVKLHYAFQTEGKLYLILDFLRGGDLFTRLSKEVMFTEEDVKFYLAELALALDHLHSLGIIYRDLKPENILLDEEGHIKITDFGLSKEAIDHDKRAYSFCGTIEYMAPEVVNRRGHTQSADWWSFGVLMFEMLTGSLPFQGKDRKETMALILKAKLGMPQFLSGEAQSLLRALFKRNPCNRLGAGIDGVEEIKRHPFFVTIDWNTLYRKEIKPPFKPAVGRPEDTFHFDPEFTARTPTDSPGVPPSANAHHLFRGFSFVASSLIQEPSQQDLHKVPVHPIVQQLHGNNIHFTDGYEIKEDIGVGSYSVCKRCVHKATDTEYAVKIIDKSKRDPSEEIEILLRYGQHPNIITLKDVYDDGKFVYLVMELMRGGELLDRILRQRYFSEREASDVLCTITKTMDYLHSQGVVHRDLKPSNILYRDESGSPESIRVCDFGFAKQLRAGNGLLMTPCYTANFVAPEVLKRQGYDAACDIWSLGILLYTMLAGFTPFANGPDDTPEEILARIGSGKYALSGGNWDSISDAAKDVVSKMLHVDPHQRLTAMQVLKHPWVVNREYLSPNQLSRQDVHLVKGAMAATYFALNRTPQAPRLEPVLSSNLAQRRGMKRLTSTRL
CAMK1 (human), sequence (Q14012 whole entry, looked up): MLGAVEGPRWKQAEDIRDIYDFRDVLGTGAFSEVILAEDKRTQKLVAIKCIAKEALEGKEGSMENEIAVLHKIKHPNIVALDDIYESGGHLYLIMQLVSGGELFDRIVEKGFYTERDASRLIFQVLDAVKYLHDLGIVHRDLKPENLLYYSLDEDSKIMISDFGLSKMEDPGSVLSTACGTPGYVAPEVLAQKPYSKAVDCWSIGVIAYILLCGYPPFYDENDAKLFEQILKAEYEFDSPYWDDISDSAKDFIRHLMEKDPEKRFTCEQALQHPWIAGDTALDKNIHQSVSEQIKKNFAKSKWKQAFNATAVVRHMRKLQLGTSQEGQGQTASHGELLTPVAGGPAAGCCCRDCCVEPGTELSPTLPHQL
RPS6KB1 (human), sequence (P23443 whole entry, looked up): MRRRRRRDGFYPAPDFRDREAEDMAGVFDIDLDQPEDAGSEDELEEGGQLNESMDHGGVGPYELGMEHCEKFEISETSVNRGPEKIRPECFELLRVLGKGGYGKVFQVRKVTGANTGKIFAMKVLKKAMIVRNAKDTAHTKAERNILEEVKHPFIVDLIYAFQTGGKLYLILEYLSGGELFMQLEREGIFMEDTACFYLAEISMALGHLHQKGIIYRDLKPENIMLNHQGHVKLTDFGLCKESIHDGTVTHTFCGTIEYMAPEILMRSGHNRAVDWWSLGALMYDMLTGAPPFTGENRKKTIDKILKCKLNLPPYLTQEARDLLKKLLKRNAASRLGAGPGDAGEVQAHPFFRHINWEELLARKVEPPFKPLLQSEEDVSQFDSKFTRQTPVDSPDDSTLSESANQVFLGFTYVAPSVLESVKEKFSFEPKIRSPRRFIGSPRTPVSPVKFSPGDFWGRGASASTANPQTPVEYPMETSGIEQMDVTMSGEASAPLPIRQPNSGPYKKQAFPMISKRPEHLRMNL
CDK1 CCNB1 (human), sequence (P06493 whole entry, looked up): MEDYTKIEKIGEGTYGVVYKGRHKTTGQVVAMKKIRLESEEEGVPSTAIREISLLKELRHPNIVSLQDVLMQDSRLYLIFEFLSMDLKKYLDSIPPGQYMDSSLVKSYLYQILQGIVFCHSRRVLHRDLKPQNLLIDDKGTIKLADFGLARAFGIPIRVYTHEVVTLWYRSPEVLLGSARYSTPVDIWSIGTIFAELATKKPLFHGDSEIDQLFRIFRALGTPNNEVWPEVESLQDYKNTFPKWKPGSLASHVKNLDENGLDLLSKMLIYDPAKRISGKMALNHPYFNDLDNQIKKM
CDK1 CCNB1 (human), sequence (P14635 whole entry, looked up): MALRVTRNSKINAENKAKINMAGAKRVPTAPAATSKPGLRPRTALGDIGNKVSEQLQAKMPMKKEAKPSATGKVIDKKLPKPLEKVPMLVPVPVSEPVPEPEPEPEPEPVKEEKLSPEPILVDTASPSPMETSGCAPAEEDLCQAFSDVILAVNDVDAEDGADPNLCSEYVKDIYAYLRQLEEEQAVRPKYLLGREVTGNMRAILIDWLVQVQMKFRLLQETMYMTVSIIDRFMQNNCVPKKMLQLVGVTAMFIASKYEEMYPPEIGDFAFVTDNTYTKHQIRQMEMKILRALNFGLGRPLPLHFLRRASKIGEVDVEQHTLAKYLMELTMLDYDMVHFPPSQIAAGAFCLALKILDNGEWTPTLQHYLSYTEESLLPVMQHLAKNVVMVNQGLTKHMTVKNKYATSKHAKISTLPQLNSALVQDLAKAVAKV

Row | SMILES | residual activity [1] [%] | residual activity [2] [%] | residual activity [3] [%] | residual activity [4] [%] | residual activity [5] [%] | residual activity [6] [%] | residual activity [7] [%] | residual activity [8] [%] | residual activity [9] [%] | residual activity [10] [%] | residual activity [11] [%] | residual activity [12] [%] | residual activity [13] [%] | residual activity [14] [%] | residual activity [15] [%] | residual activity [16] [%] | residual activity [17] [%] | residual activity [18] [%] | residual activity [19] [%] | residual activity [20] [%] | further results
1 | CCCCc1c(-c2ccc(O)cc2)[nH]c2nccnc12 | 87.3 | 78.2 | 86.7 | 37.3 | 105 | 97 | 85.3 | 44.9 | 60.9 | 61.6 | 87.2 | 106 | 101 | 106 | 159 | 90.3 | 97 | 99.3 | 64.5 | 45.2 | residual activity [21]: 78.3%; residual activity [22]: 93.1%; residual activity [23]: 100%; residual activity [24]: 42.8%; residual activity [25]: 87.7%; residual activity [26]: 83.1%; residual activity [27]: 84.1%; residual activity [28]: 58.6%; residual activity [29]: 92.5%; residual activity [30]: 80.8%; residual activity [31]: 94.7%; residual activity [32]: 97.4%; residual activity [33]: 104%; residual activity [34]: 95.8%; residual activity [35]: 80.3%; residual activity [36]: 84.9%; residual activity [37]: 103%; residual activity [38]: 87.5%; residual activity [39]: 65%; residual activity [40]: 121%
2 | c1ccc(-c2cnc(Nc3ccc(OCCN4CCCC4)cc3)s2)cc1 | 48.2 | 89.9 | 45.5 | 94.3 | 92.3 | 84.2 | 95.1 | 94.9 | 35.5 | 40.3 | 79.3 | 83.4 | 99.8 | 99 | 86.1 | 94.8 | 102 | 91.1 | 93.2 | 85.1 | residual activity [41]: 82.4%; residual activity [21]: 102%; residual activity [22]: 95%; residual activity [23]: 97%; residual activity [24]: 39.8%; residual activity [25]: 85%; residual activity [26]: 98.3%; residual activity [27]: 93.8%; residual activity [28]: 50.4%; residual activity [29]: 86.3%; residual activity [30]: 91%; residual activity [31]: 92.1%; residual activity [32]: 96.3%; residual activity [33]: 101%; residual activity [35]: 102%; residual activity [36]: 66.2%; residual activity [37]: 97.1%; residual activity [38]: 101%; residual activity [39]: 91.1%; residual activity [40]: 108%
3 | O=S(=O)(NCCNC/C=C/c1ccc(Br)cc1)c1cccc2cnccc12 | 97.1 | 95.6 | 91.6 | 99.6 | 25.6 | 93.3 | 81.5 | 89 | 43.8 | 77.9 | 92.4 | 108 | 84.8 | 96.4 | 110 | 14.3 | 99.8 | 93.2 | 115 | 93.3 | residual activity [21]: 92.6%; residual activity [22]: 95.2%; residual activity [23]: 97%; residual activity [24]: 85.5%; residual activity [25]: 79.2%; residual activity [26]: 64.1%; residual activity [27]: 94.7%; residual activity [28]: 77.8%; residual activity [29]: 107%; residual activity [30]: 79.5%; residual activity [31]: 86.6%; residual activity [32]: 79.8%; residual activity [33]: 99.1%; residual activity [34]: 69%; residual activity [35]: 109%; residual activity [36]: 100%; residual activity [37]: 112%; residual activity [38]: 86.8%; residual activity [39]: 86.8%; residual activity [40]: 104%
